# Peptide text beside a SMILES is read from it.
# How the values were obtained:
# SIRT1 = SIRT1 transcription, semi-quantitative RT-PCR in human epidermal progenitors; assay type: cell-based; conditions: 72 h
# Protocol: (§1) Human neonatal epidermal progenitors (Thermo Fisher Scientific, NY) were seeded in 6-well plates at a density of 2×10^5 cells/well. Each well received 2 ml of Epilife media containing 60 μM calcium chloride (Thermo Fisher Scientific, NY). Plates were incubated in a humidified chamber at 37 degrees Celsius and 5 percent CO2. Twenty-four hours later, cells were treated with various concentrations of oxyresveratrol or decapeptide-12 dissolved in PBS containing 5 percent DMSO. Control wells received vehicle only (5 percent DMSO and PBS). Final concentration of DMSO in each well was 0.05 percent.
# (§2) After a 72 hour incubation period, cells were trypsinized and total RNA extracted, using RNeasy kit (Qiagen, Valencia, Calif.) according to the manufacturer's protocol.
# (§3) RNA concentration was determined using nanodrop (Thermo fisher scientific, NY). Two μg of total RNA were used to synthesize cDNA using oligo dT primers and TaqMan reverse transcription reagents (Thermo fisher scientific, NY). The reaction was carried out in DNA Engine Peltier Thermal Cycler (Bio-Rad, Hercules, Calif.). The annealing temperature was 25 degrees Celsius for 10 minutes, followed by first strand synthesis at 48 degrees Celsius for 1 hour, and heat inactivation at 95 degrees Celsius for 5 minutes.
# (§4) The SIRT1-7 primers (table 1) were designed using Primer3. The semi-quantitative PCR reactions were performed on a DNA Engine Peltier Thermo Cycler (Bio-Rad, Hercules, Calif.). PCR was carried under the following conditions: denaturation at 94 degrees Celsius for 2 minutes and primer extension at 54 degrees Celsius for 30 seconds in 34 cycles for SIRT 1-7 and the housekeeping gene 18S.
# (§5) Samples were run and resolved on a 1.5 percent agarose gel containing 0.5 μg/ml of ethidium bromide and imaged using the FluorChem HD2 Imaging System (Protein simple, San Jose, Calif.). Densitometry analysis was carried out using the AlphaEase FC software (Protein simple, San Jose, Calif.). Intensity ratios were calculated as the intensity value for each gene divided by the intensity value of the internal control gene 18S.
# (§6) The effect of the decapeptides P4, P4A, P4B, and P4C upon the transcription levels of sirtuins 1-7 was evaluated. Table 4 summarizes transcription levels for all four decapeptides with the corresponding genes, at tested concentrations of: 10, 30, 50, 100, and 300 (all in μM).
# SIRT2 = SIRT2 transcription, semi-quantitative RT-PCR in human epidermal progenitors; assay type: cell-based; conditions: 72 h
# Protocol: as §1, §2, §3, §4, §5, §6
# SIRT4 = SIRT4 transcription, semi-quantitative RT-PCR in human epidermal progenitors; assay type: cell-based; conditions: 72 h
# Protocol: as §1, §2, §3, §4, §5, §6
# SIRT5 = SIRT5 transcription, semi-quantitative RT-PCR in human epidermal progenitors; assay type: cell-based; conditions: 72 h
# Protocol: as §1, §2, §3, §4, §5, §6
# SIRT6 = SIRT6 transcription, semi-quantitative RT-PCR in human epidermal progenitors; assay type: cell-based; conditions: 72 h
# Protocol: as §1, §2, §3, §4, §5, §6
# SIRT7 = SIRT7 transcription, semi-quantitative RT-PCR in human epidermal progenitors; assay type: cell-based; conditions: 72 h
# Protocol: as §1, §2, §3, §4, §5, §6
# in vitro = assay type: cell-based; conditions: human, human epidermal progenitors
# Protocol: Proliferation rates were determined using a TACS® MTT Cell Proliferation Kit (R&D systems, Minneapolis, Minn.). Cells were seeded at 2.5×10^4/well in 96-well plates in a humidified atmosphere with 5 percent CO2 at 37 degrees Celsius. Twenty-four hours later, decapeptide-12 or oxyresveratrol were added to the corresponding wells at varying concentrations (0, 3, 10, 30, 100, 300, and 1000 μM), and cultures were then incubated for 72 hours. The remainder of the procedure was performed following the manufacturer's protocol.
# (§7) Proliferation rates for three human cell lines (epidermal progenitors, melanoblasts, and fibroblasts) were determined using a TACS® MTT Cell Proliferation Kit. Cells were seeded at 2.5×10^4/well in 96-well plates in a humidified atmosphere with 5 percent CO2 at 37 degrees Celsius. Twenty-four hours later, the decapeptides were added to the corresponding wells at varying concentrations and incubated for 72 hours. The remainder of the procedure was performed following the manufacturer's protocol.
# [1] = MTT cell proliferation assay, fibroblasts; assay type: cell-based, human; conditions: human, MTT, 72 h, read-out: fibroblast proliferation rate after 72 hours
# Protocol: as §7
# [2] = Trypan blue cell viability, 7 days, fibroblasts; assay type: cell-based; conditions: human, relative to control, read-out: fibroblast viability after 7 days
# Protocol: The effect of each of the decapeptides upon cell viability was also tested. In particular, cells were incubated with the decapeptide at various concentrations and then counted for viability relative to the control (untreated cells) using trypan blue. Cytotoxicity was measured according to the following formula:
# [1−(# of cells in control−# of live cells in test sample)/# of cells in control]×100 percent.
compound,measurement,setting,value
"CCCCCCCCCCCCCCCC(=O)N[C@@H](Cc1ccc(O)cc1)C(=O)N[C@@H](CCCNC(=N)N)C(=O)N[C@@H](CO)C(=O)N[C@@H](CCCNC(=N)N)C(=O)N[C@@H](CCCCN)C(=O)N[C@H](Cc1ccc(O)cc1)C(=O)N[C@@H](CO)C(=O)N[C@@H](CO)C(=O)N[C@@H](Cc1c[nH]c2ccccc12)C(=O)N[C@@H](Cc1ccc(O)cc1)C(N)=O [P4B, Palmitoyl-YRSRK[*Y]SSWY-amide] (HELM PEPTIDE1{[CCCCCCCCCCCCCCCC(=O)[*:2]].Y.R.S.R.K.[dY].S.S.W.Y.[am]}$$$$V2.0)",SIRT1 transcription increase relative to control,SIRT1; 10 μM,10 ± 4%
same,SIRT1 transcription increase relative to control,SIRT1; 30 μM,10 ± 3%
same,SIRT1 transcription increase relative to control,SIRT1; 50 μM,48 ± 3%
same,SIRT1 transcription increase relative to control,SIRT1; 100 μM,135 ± 12%
same,SIRT1 transcription increase relative to control,SIRT1; 300 μM,155 ± 3%
same,SIRT2 transcription increase relative to control,SIRT2; 10 μM,5 ± 1%
same,SIRT2 transcription increase relative to control,SIRT2; 30 μM,8 ± 3%
same,SIRT2 transcription increase relative to control,SIRT2; 50 μM,17 ± 6%
same,SIRT2 transcription increase relative to control,SIRT2; 100 μM,52 ± 4%
same,SIRT2 transcription increase relative to control,SIRT2; 300 μM,40 ± 4%
same,SIRT4 transcription increase relative to control,SIRT4; 10 μM,9 ± 1%
same,SIRT4 transcription increase relative to control,SIRT4; 30 μM,10 ± 1%
same,SIRT4 transcription increase relative to control,SIRT4; 50 μM,17 ± 1%
same,SIRT4 transcription increase relative to control,SIRT4; 100 μM,86 ± 6%
same,SIRT4 transcription increase relative to control,SIRT4; 300 μM,49 ± 4%
same,SIRT5 transcription increase relative to control,SIRT5; 10 μM,2.00%
same,SIRT5 transcription increase relative to control,SIRT5; 30 μM,1.00%
same,SIRT5 transcription increase relative to control,SIRT5; 50 μM,1.00%
same,SIRT5 transcription increase relative to control,SIRT5; 100 μM,35 ± 3%
same,SIRT5 transcription increase relative to control,SIRT5; 300 μM,29 ± 5%
same,SIRT6 transcription increase relative to control,SIRT6; 10 μM,21 ± 5%
same,SIRT6 transcription increase relative to control,SIRT6; 30 μM,22 ± 4%
same,SIRT6 transcription increase relative to control,SIRT6; 50 μM,10 ± 4%
same,SIRT6 transcription increase relative to control,SIRT6; 100 μM,107 ± 2%
same,SIRT6 transcription increase relative to control,SIRT6; 300 μM,81 ± 4%
same,SIRT7 transcription increase relative to control,SIRT7; 10 μM,20 ± 6%
same,SIRT7 transcription increase relative to control,SIRT7; 30 μM,23 ± 5%
same,SIRT7 transcription increase relative to control,SIRT7; 50 μM,54 ± 7%
same,SIRT7 transcription increase relative to control,SIRT7; 100 μM,61 ± 7%
same,SIRT7 transcription increase relative to control,SIRT7; 300 μM,103 ± 8%
same,"viability at 72 h, 3 µM",in vitro,99 ± 1%
same,"viability at 72 h, 10 µM",in vitro,99 ± 1%
same,"viability at 72 h, 30 µM",in vitro,98 ± 1%
same,"viability at 72 h, 50 µM",in vitro,98 ± 1%
same,"viability at 72 h, 100 µM",in vitro,97 ± 1%
same,"viability at 72 h, 300 µM",in vitro,97 ± 1%
same,"viability at 72 h, 500 µM",in vitro,95 ± 2%
same,"viability at 72 h, 1000 µM",in vitro,94 ± 2%
same,"viability at 72 h, 3 µM",[1]; 3 μM,100%
same,"viability at 72 h, 10 µM",[1]; 10 μM,99 ± 1%
same,"viability at 72 h, 30 µM",[1]; 30 μM,99 ± 1%
same,"viability at 72 h, 50 µM",[1]; 50 μM,99 ± 1%
same,"viability at 72 h, 100 µM",[1]; 100 μM,98 ± 2%
same,"viability at 72 h, 300 µM",[1]; 300 μM,97 ± 2%
same,"viability at 72 h, 500 µM",[1]; 500 μM,96 ± 2%
same,"viability at 72 h, 1000 µM",[1]; 1000 μM,96 ± 2%
same,"viability at 168 h, 3 µM",[2]; 3 μM,100%
same,"viability at 168 h, 10 µM",[2]; 10 μM,98.8 ± 1%
same,"viability at 168 h, 30 µM",[2]; 30 μM,98.3 ± 1%
same,"viability at 168 h, 50 µM",[2]; 50 μM,97.6 ± 1%
same,"viability at 168 h, 100 µM",[2]; 100 μM,97.3 ± 2%
same,"viability at 168 h, 300 µM",[2]; 300 μM,96.5 ± 2%
same,"viability at 168 h, 500 µM",[2]; 500 μM,95.3 ± 3%
same,"viability at 168 h, 1000 µM",[2]; 1000 μM,94.2 ± 3%
